Results taken from patent US12024506B2, “Compounds” (Oxford University Innovation Limited, priority 2018, dated 2024).

Experiments:
[1] = tested on: H358 cells (ATCC CRL-5807); test: Cell viability assay 1 (CellTiter-Glo), H358 cells; format: cell-based; conditions: Homo sapiens, NCI-H358, 48 h, first value of the cell, read-out: Cell Viability H358 (concentration that decreases cell viability by 50%)
Procedure: (§1) Cells (A549 ATCC CCL-185) are cultured in Dulbecco's Modified Eagle's Medium plus 10% foetal calf serum and 2 mM L-glutamine at 37° C., 5% CO2. Cells are plated onto white clear bottom 96-well plates (5000 cells/well in 200 μl media) and left to adhere overnight at 37° C., 5% CO2. Next day, test compound (1 μl at 200× concentration in 100% DMSO) is added to give final test compound concentration 1× in 0.5% DMSO. After 48 h of incubation at 37° C., 5% CO2, 20 μl CellTiter-Glo reagent (Promega G7572) is added into each well. Plates are incubated at room temperature with shaking for 30 min and then luminescence is read using a PheraStar plate reader. The concentration of compounds that decrease cell viability by 50% is calculated from dose response curves generated using Dotmatics data analysis software.
In the H358 cell assay, cells (ATCC CRL-5807) are cultured in RPMI-1640 medium plus 10% foetal calf serum and 2 mM L-glutamine at 37° C., 5% CO2.

[2] = target: T1, GST-human KRas166 (G12V) GPPNHP (Homo sapiens, UniProt P01116, G12V); test: KRas small-molecule screening by SPR (Biacore T200); format: binding; conditions: compound 100 uM, 5% DMSO buffer; immobilised GST-KRas166 (G12V) GPPNHP
T1 construct: made in house; host or cells: E. coli C41(DE3)
How it was run: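 GST-KRas166 G12V loaded with GPPNHP, captured on anti-GST CM5 chip at 10,000–15,000 RU, GST reference channel. Compounds run at 100 uM in buffer with 100 mM NaCl, 5 mM MgCl2, 5% DMSO, with DMSO solvent correction; Rmax for 1:1 binding taken as 63 RU.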

[3] = tested on: DLD1 cells (ATCC CCL-221); test: Cell viability assay 1 (CellTiter-Glo), DLD1 cells; format: cell-based; conditions: Homo sapiens, DLD-1 cells, 48 h, second value of the cell, read-out: Cell Viability DLD-1 (concentration that decreases cell viability by 50%)
Procedure: as §1
In the DLD1 cell assay, cells (ATCC CCL-221) are cultured in RPMI-1640 medium plus 10% foetal calf serum and 2 mM L-glutamine at 37° C., 5% CO2.

| SMILES | IC50 [1] [µM] | SPR Response Units [2] [Response Units] | IC50 [3] [µM] |
| --- | --- | --- | --- |
| COc1cccc(-c2cccc3c2OC(CN(Cc2ccc(OCCN(C)C)cc2)Cc2cccnc2)CO3)n1 (stereo not drawn) [Example 31, {2-[4-({[8-(6-Methoxy-pyridin-2-yl)-2,3-dihydrobenzo[1,4]dioxin-2-ylmethyl]-pyridin3-ylmethyl-amino}-methyl)-phenoxy]-ethyl}-dimethyl-amine] | 18 | 119 | 3 |
| COc1cccc(-c2cccc3c2OC(CNC(=O)c2ccc(OCCN(C)C)cc2F)CO3)n1 (stereo not drawn) [Example 38, 4-(2-Dimethylamino-ethoxy)-2-fluoro-N-[8-(6-methoxy-pyridin-2-yl)-2,3-dihydro-benzo[1,4]dioxin-2-ylmethyl]-benzamide] | 58 | 335 | 3.6 |
| COc1cccc(-c2cccc3c2OC(CNC(=O)c2ccc(OCCN(C)C)cc2)CO3)n1 (stereo not drawn) [Example 39, 4-(2-Dimethylamino-ethoxy)-N-[8-(6-methoxy-pyridin-2-yl)-2,3-dihydro-benzo[1,4]dioxin-2-ylmethyl]-benzamide] | 79 | 127 | 5 |
| COc1cccc(-c2cccc3c2O[C@H](CNC(=O)c2ccc(OCCN(C)C)cc2)CO3)n1 [Example 40, 4-(2-Dimethylamino-ethoxy)-N-[(R)-8-(6-methoxy-pyridin-2-yl)-2,3-dihydro-benzo[1,4]dioxin-2-ylmethyl]-benzamide] | 52 | 58 | 12 |
| COc1cccc(-c2cccc3c2OC(CNC(=O)c2ccc(CN4CCN(C)CC4)o2)CO3)n1 (stereo not drawn) [Example 43, 5-(4-Methyl-piperazin-1-ylmethyl)-furan-2-carboxylic acid [8-(6-methoxy-pyridin-2-yl)-2,3-dihydro-benzo[1,4]dioxin-2-ylmethyl]-amide] | > 100 | 105 | 19 |
| COc1cccc(-c2cccc3c2OC(CNC(=O)c2coc(CN4CCOCC4)c2)CO3)n1 (stereo not drawn) [Example 46, 5-Morpholin-4-ylmethyl-furan-3-carboxylic acid [8-(6-methoxy-pyridin-2-yl)-2,3-dihydro-benzo[1,4]dioxin-2-ylmethyl]-amide] | > 100 | 148 | > 100 |
| COc1nc(-c2cccc3c2OCCO3)ccc1Nc1cccc(CN(C)C)c1 [Example 55, [6-(2,3-dihydro-benzo[1,4]dioxin-5-yl)-2-methoxy-pyridin-3-yl]-(3-dimethylaminomethyl-phenyl)-amine] | 8 | 130 | 9.2 |
| COc1nc(-c2cccc3c2OCCO3)ccc1Nc1ccc(CN(C)C)cn1 [Example 57, [6-(2,3-Dihydro-benzo[1,4]dioxin-5-yl)-2-methoxy-pyridin-3-yl]-(5-dimethylaminomethyl-pyridin-2-yl)-amine] | 29 | 77 | 20.2 |
| COc1nc(-c2cccc3c2OCCO3)ccc1Nc1cccc(CN2CCCC2)c1 [Example 60, [6-(2,3-Dihydro-benzo[1,4]dioxin-5-yl)-2-methoxy-pyridin-3-yl]-(3-pyrrolidin-1-ylmethyl-phenyl)-amine] | 11.4 | 108 | 7.5 |
| CN(C)Cc1cccc(Nc2ccc(-c3cccc4c3OCCO4)cc2)c1.O=CO [Example 70, [4-(2,3-Dihydro-benzo[1,4]dioxin-5-yl)-phenyl]-(3-dimethylaminomethyl-phenyl)-amine. formate salt] | 8.6 | 86 | 10.6 |
| COc1nc(-c2cccc3c2OCCO3)ccc1Nc1cccc([C@H]2CCCN2)c1 [Example 74, [6-(2,3-Dihydro-benzo[1,4]dioxin-5-yl)-2-methoxy-pyridin-3-yl]-((R)-3-pyrrolidin-2-yl-phenyl)-amine] | 3.11 | 110 | 6 |
| COc1nc(-c2cccc3c2OCCO3)ccc1Nc1cccc(CNC(=O)c2ccncc2)c1 [Example 80, N-{3-[6-(2,3-Dihydro-benzo[1,4]dioxin-5-yl)-2-methoxy-pyridin-3-ylamino]-benzyl}-isonicotinamide] | 16.5 | 51 | 13.4 |
| COc1cc(NC(=O)N[C@@H]2CC[C@H](NC(=O)OCc3ccccc3)C2)cc(-c2cccc3c2OC(CNC(=O)C2CCOCC2)CO3)n1 (stereo partly drawn) [Example 100, ((1S,3R)-3-{3-[2-Methoxy-6-(3-{[(tetrahydro-pyran-4-carbonyl)-amino]-methyl}-2,3-dihydro-benzo[1,4]dioxin-5-yl)-pyridin-4-yl]-ureido}-cyclopentyl)-carbamic acid benzyl ester] | 28 | 97 | 5 |

More lines, in order of falling IC50 [1], values ahead:

| IC50 [1] [µM] | SPR Response Units [2] [Response Units] | IC50 [3] [µM] | SMILES |
| --- | --- | --- | --- |
| 48 | 60 | 20 | COc1cccc(-c2cccc3c2O[C@@H](CNC(=O)c2ccc(OCCN(C)C)cc2)CO3)n1 [Example 41, 4-(2-Dimethylamino-ethoxy)-N-[(S)-8-(6-methoxy-pyridin-2-yl)-2,3-dihydrobenzo [1,4]dioxin-2-ylmethyl]-benzamide] |
| 33 | 59 | 20 | COc1nc(-c2cccc3c2OC(CNC(=O)C2CCOCC2)CO3)ccc1Nc1cccc(CN(C)C)c1 (stereo not drawn) [Example 84, Tetrahydro-pyran-4-carboxylic acid {8-[5(3-dimethylamino-methyl-phenylamino)-6-methoxy-pyridin-2-yl]-2,3-dihydro-benzo[1,4]dioxin-2-ylmethyl}-amide] |
| 27 | 114 | 11 | CN1CCN(Cc2ccc(C(=O)NCC3COc4cccc(-c5cc(OCc6ccccc6)ccn5)c4O3)o2)CC1 (stereo not drawn) [Example 106, 5-(4-Methyl-piperazin-1-ylmethyl)-furan-2-carboxylic acid [8-(4-benzyloxy-pyridin-2-yl)-2,3-dihydro-benzo[1,4]dioxin-2-ylmethyl]-amide] |
| 21 | 128 | 21.5 | COc1nc(-c2cccc3c2O[C@@H](CNC(=O)C2CCOCC2)CO3)ccc1Nc1cccc(CN(C)C)c1 [Example 69] |
| 20.1 | 61 | 12.2 | COc1nc(-c2cccc3c2OCCO3)ccc1Nc1cccc(CN2CCOCC2)c1 [Example 61, [6-(2,3-Dihydro-benzo[1,4]dioxin-5-yl)-2-methoxy-pyridin-3-yl]-(3-morpholin-4-ylmethyl-phenyl)-amine] |
| 19 | 269 | 16.2 | COc1nc(-c2cccc3c2OCCO3)ccc1Nc1ccc(Cn2ccnc2)cc1 [Example 58, [6-(2,3-Dihydro-benzo[1,4]dioxin-5-yl)-2-methoxy-pyridin-3-yl]-(4-imidazol-1-ylmethyl-phenyl)-amine] |
| 18 | 47 | 16.5 | COc1nc(-c2cccc3c2OCCO3)ccc1Nc1cccc(CNC(=O)c2cccnc2)c1 [Example 79, N-{3-[6-(2,3-Dihydro-benzo[1,4]dioxin-5-yl)-2-methoxy-pyridin-3-ylamino]-benzyl}-nicotinamide] |
| 17 | 85 | 7 | COc1cccc(-c2cccc3c2OC(CN(Cc2ccc(OCCN(C)C)cc2)CC2CCOCC2)CO3)n1 (stereo not drawn) [Example 32, [2-(4-{[[8-(6-Methoxy-pyridin-2-yl)-2,3-dihydro-benzo[1,4]dioxin-2-ylmethyl]-(tetrahydro-pyran-4-ylmethyl)-amino]-methyl}-phenoxy)-ethyl]-dimethyl-amine] |
| 8.6 | 72 | 13.7 | COc1nc(-c2cccc3c2OCCO3)ccc1Nc1cccc(C2CCC(=O)N2)c1 (stereo not drawn) [Example 62, 5-{3-[6-(2,3-Dihydro-benzo[1,4]dioxin-5-yl)-2-methoxy-pyridin-3-ylamino]-phenyl}-pyrrolidin-2-one] |
| 2.6 | 112 | 4 | COc1nc(-c2cccc3c2OCCO3)ccc1Nc1cccc([C@@H]2CCCN2)c1 [Example 75, [6-(2,3-Dihydro-benzo[1,4]dioxin-5-yl)-2-methoxy-pyridin-3-yl]-((S)-3-pyrrolidin-2-yl-phenyl)-amine] |
